Records with an inconclusive call do not appear. Active and inactive are the calls of the source. No rule for the calls is given here.
System: BJ-TERT RAS-dependent fibroblast cytotoxicity, fluorescence
Assay: cytotoxicity toward RAS-dependent BJ-TERT fibroblasts, dose response, cell-based, fluorescence viability readout (AID 2635)

| Structure (SMILES) | EC50 |
| --- | --- |
| Cc1cccc(Nc2nc(N)nc(CCl)n2)c1 | > 6.67 µM (inactive) |
| O=C(COc1ccc(Cl)cc1)Nc1ccc(C(=O)NCc2cccnc2)cc1 | > 6.67 µM (inactive) |
| COC(=O)C[C@](O)(CCCC(C)(C)O)C(=O)O[C@@H]1C(OC)=C[C@]23CCCN2CCc2cc4c(cc2[C@H]13)OCO4 | 0.00683 µM |
| C/C(=N\Nc1ccc2nncn2n1)c1ccccn1 | 5.47 µM |
| O=C(N/N=C/c1cccnc1)c1ccc(NC(=O)C(c2ccccc2)c2ccccc2)cc1 | > 6.67 µM (inactive) |
| CC[C@@]1(O)C(=O)OCc2c1cc1n(c2=O)Cc2cc3ccccc3nc2-1 | 0.0178 µM |
| CCc1ccc(/C=C2/SC(=S)N(CCC(=O)Nc3cccnc3)C2=O)cc1 | > 6.67 µM (inactive) |
| Nc1nc(CCl)nc(Nc2cccc3ccccc23)n1 | > 6.67 µM (inactive) |
| O=C(Cc1ccc([N+](=O)[O-])cc1)N/N=C/c1ccc([N+](=O)[O-])o1 | > 6.67 µM (inactive) |
| CN1CCN(C(=O)CCCN2C(=O)/C(=C/c3cccc(Br)c3)SC2=S)CC1 | > 6.67 µM (inactive) |
| COc1ccc(Cc2nc(-c3ccc(NC(=O)c4cccnc4)cc3)no2)cc1 | > 6.67 µM (inactive) |
| C=CCOc1ccccc1CN(C(=O)CCl)c1ccc2c(c1)OCO2 | > 6.67 µM (inactive) |
| O=[N+]([O-])c1ccc(N=Nc2ncc[nH]2)cc1 | > 6.67 µM (inactive) |
| CC[C@H]1CN2CCc3cc(OC)c(OC)cc3[C@@H]2C[C@@H]1C[C@H]1NCCc2cc(OC)c(OC)cc21 | 0.0103 µM |
| O=C(NCc1cccnc1)c1ccc(-c2cc3ccccc3oc2=O)cc1 | > 6.67 µM (inactive) |
| O=C(NCc1cccnc1)c1ccc(NC(=O)c2ccc([N+](=O)[O-])cc2)cc1 | > 6.67 µM (inactive) |
| O=C(NCCOc1cccnc1)c1ccc(OC2CCN(Cc3ccccn3)CC2)cc1 | 5.19 µM |
| COC(=O)[C@@H]1Cc2c([nH]c3ccccc23)C(C)(C)N1C(=O)CCl | > 6.67 µM (inactive) |
| O=S(=O)(c1ccc(NC(=S)NCc2cccnc2)cc1)N1CCCCC1 | > 6.67 µM (inactive) |
| CC(Oc1ccc(Cl)cc1Cl)c1nc(-c2ccc(NC(=O)c3cccnc3)cc2)no1 (stereo not drawn) | > 6.67 µM (inactive) |

| Structure (SMILES) | EC50 |
| --- | --- |
| C/C(=N\Nc1ncc(Cl)cc1Cl)c1ccccn1 | 0.0273 µM |
| CCN1/C(=C\C=C\C2=[N+](CC)c3ccccc3C2(C)C)C(C)(C)c2ccccc21 | 0.287 µM |
| COc1ccc(C(C(=O)NC2CCCCC2)N(C(=O)CCl)c2cccc(Cl)c2)cc1 (stereo not drawn) | > 2.08 µM (inactive) |
| CC(=O)Nc1ccc(NC(=O)CN(c2cccc([N+](=O)[O-])c2)S(C)(=O)=O)cc1 | > 6.67 µM (inactive) |
| O=C(CCCCCN1C(=O)c2cccc3cccc(c23)C1=O)NCc1cccnc1 | > 6.67 µM (inactive) |
| Cc1cccnc1Nc1nc(-c2ccccn2)cs1 | 0.985 µM |
| Cc1cccc(OCC(=O)Nc2ccc(C(=O)NCc3cccnc3)cc2)c1 | > 6.67 µM (inactive) |
| CCc1ccc(/C=C2/SC(=S)N(CCC(=O)NCCCN3CCOCC3)C2=O)cc1 | > 6.67 µM (inactive) |
| COc1ccc(C(C(=O)NC2CCCCC2)N(C(=O)CCl)c2ccc(C)cc2)cc1 (stereo not drawn) | > 6.67 µM (inactive) |
| O=C(CCN1C(=O)/C(=C\c2cccc(Br)c2)SC1=S)NCCCN1CCOCC1 | > 6.67 µM (inactive) |
| O=C(NCc1cccnc1)c1ccc(NC(=O)c2cccc([N+](=O)[O-])c2)cc1 | > 6.67 µM (inactive) |
| CC(C)(C)c1nnc(N/N=C/c2cc(Br)ccc2O)n(N)c1=O | 1.91 µM |
| Cc1ccc(C(=O)Sc2cccccc2=O)cc1 | 0.13 µM |
| COc1ccc(S(=O)(=O)N2CCOCC2)cc1NC(=O)CCNC(=O)c1ccc(Br)cc1 | > 6.67 µM (inactive) |
| Cc1cccc(Nc2nc(N)nc(CCl)n2)c1C | > 6.67 µM (inactive) |
| CC(C)C(=O)Nc1ccc(C(=O)NCc2cccnc2)cc1 | > 6.67 µM (inactive) |
| COc1cccc(/C=C2\SC(=S)N(CCCC(=O)N(CCO)c3ccccc3)C2=O)c1 | > 6.67 µM (inactive) |
| Cc1ccc(N(C(=O)CCl)C(C(=O)NC2CCCCC2)c2cccnc2)cc1C (stereo not drawn) | 0.26 µM |
| CC(C)(C)c1ccc(C(=O)Nc2ccc(C(=O)NCc3cccnc3)cc2)cc1 | > 6.67 µM (inactive) |
| O=S(=O)(c1ccc2c(c1)C(=NO)c1cc(S(=O)(=O)N3CCCCC3)ccc1-2)N1CCCCC1 | 2.58 µM |

| Structure (SMILES) | EC50 |
| --- | --- |
| COc1ccc(N(C(=O)CCl)C(C(=O)NCCc2ccccc2)c2cccs2)cc1 (stereo not drawn) | 4.89 µM |
| COc1ccc(OC)c(Nc2nc(N)nc(CCl)n2)c1 | > 6.67 µM (inactive) |
| Oc1ccccc1N=Nc1nc(-c2ccccc2)c(-c2ccccc2)[nH]1 | 0.374 µM |
| COc1ccc(N(C(=O)CCl)C(C(=O)NCCc2ccccc2)c2cccs2)cc1Cl (stereo not drawn) | > 2.08 µM (inactive) |
| O=C(CCl)N=c1sccn1Cc1ccccc1Cl | > 2.08 µM (inactive) |
| CCOc1ccc(CC(=O)Nc2ccc(NC(=O)c3ccco3)cc2)cc1OCC | > 6.67 µM (inactive) |
| Cc1ccc(Nc2nc(N)nc(CCl)n2)c(C)c1 | > 6.67 µM (inactive) |
| C=C1C(=O)O[C@@H]2C[C@@H](C)[C@@H]3C=CC(=O)[C@@]3(C)[C@@H](OC(=O)CC(=O)O[C@H]3[C@@H]4C(=C)C(=O)O[C@@H]4C[C@@H](C)[C@@H]4C=CC(=O)[C@]43C)[C@H]12 | 0.144 µM |
| Cc1ccc(/C=C2\SC(=S)N(CCCC(=O)N3CCOCC3)C2=O)cc1 | > 6.67 µM (inactive) |
| CC[C@@]1(O)C(=O)OCc2c1cc1n(c2=O)Cc2cc3c(NC(=O)CN)cccc3nc2-1 | 5.85 µM |
| CC1=CC(=O)C=C(C)C1=NOc1ccccc1[N+](=O)[O-] | > 6.67 µM (inactive) |
| CCc1ccc(/C=C2\SC(=S)N(CCC(=O)NCCCN3CCOCC3)C2=O)cc1 | > 6.67 µM (inactive) |
| COc1ccc(C[C@H]2NC[C@H](O)[C@H]2OC(C)=O)cc1 | 0.0456 µM |
| CCN(CC)c1ccc(/C=N/NC(=O)c2nnn(-c3nonc3N)c2C(C)C)c(O)c1 | 0.954 µM |
| COc1cccc(N(C(=O)CCl)C(C(=O)NCCc2ccccc2)c2cccs2)c1 (stereo not drawn) | 6.05 µM |
| CC[C@@]1(O)C(=O)OCc2c1cc1n(c2=O)Cc2cc3c(N)cccc3nc2-1 | 0.052 µM |
| Cc1ccccc1Nc1nc(N)nc(CCl)n1 | > 6.67 µM (inactive) |
| CC[C@@]1(O)C(=O)OCc2c1cc1n(c2=O)Cc2cc3c(CN(C)C)c(O)ccc3nc2-1 | 0.23 µM |
